Experimental data published in PubChem BioAssay AID1845204 (Molecular Pharmacology Branch, DTP, NCI, 2023).
Where “and” joins values, the source holds several entries; their conditions need not be identical. Equal entries are not always repeated.

Tested on: HSSY-II tumor spheroid viability
Assay: Anticancer human tumor HSSY-II cell line growth inhibition;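 also: spheroids exposed to compounds for seven days before reading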;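 as to viability, T/C: percent of DMSO vehicle control viability so 100% = untreated level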
Conditions: spheroids with HUVEC and MSC; for viability, T/C: stronger effect = lower value
In short: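 Complex spheroids of malignant cells with endothelial cells and mesenchymal stem cells; agents alone or combined, from near clinical Cmax (or 10 microM if unknown) down in half-log steps, 0.25% DMSO final.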

[1] = curve of first compound, second compound 30 pM
[2] = curve of first compound, second compound 94.9 pM
[3] = curve of first compound, second compound 0.0003 µM
[4] = curve of first compound, second compound 0.000949 µM
[5] = curve of first compound, second compound 0.003 µM

With CNCc1ccc(-c2cc(-c3nc(-c4ccc(S(=O)(=O)C(C)C)cc4)cnc3N)on2)cc1 + COc1cc2c(cc1O)CCNC21CSC2c3c(OC(C)=O)c(C)c4c(c3C(COC1=O)N1C(O)C3Cc5cc(C)c(OC)c(O)c5C(C21)N3C)OCO4 the IC50 [1] was 0.0315 µM, the IC50 [2] was 0.0115 µM and the IC50 [3] was < 0.00949 µM. For the same compound, the IC50 [4] was < 0.00949 µM, the IC50 [5] was < 0.00949 µM and the viability, T/C (second compound 30 pM, first compound 0.00949 µM) was 93.8%. It also gave a viability, T/C (second compound 30 pM, first compound 0.03 µM) of 51.9%, a viability, T/C (second compound 30 pM, first compound 0.0949 µM) of 7.62% and a viability, T/C (second compound 30 pM, first compound 0.3 µM) of 4.24%. It also gave a viability, T/C (second compound 30 pM, first compound 0.949 µM) of 1.27%, a viability, T/C (second compound 30 pM, first compound 3 µM) of 0.11% and a viability, T/C (second compound 94.9 pM, first compound 0.00949 µM) of 57%. For the same compound, the viability, T/C (second compound 94.9 pM, first compound 0.03 µM) was 15.9%, the viability, T/C (second compound 94.9 pM, first compound 0.0949 µM) was 4.64% and the viability, T/C (second compound 94.9 pM, first compound 0.3 µM) was 4.08%. For the same compound, the viability, T/C (second compound 94.9 pM, first compound 0.949 µM) was 1.02%, the viability, T/C (second compound 94.9 pM, first compound 3 µM) was 0.1% and the viability, T/C (second compound 0.0003 µM, first compound 0.00949 µM) was 10.1%. The viability, T/C (second compound 0.0003 µM, first compound 0.03 µM) was 5.43%, the viability, T/C (second compound 0.0003 µM, first compound 0.0949 µM) was 3.66% and the viability, T/C (second compound 0.0003 µM, first compound 0.3 µM) was 3.41%. The viability, T/C (second compound 0.0003 µM, first compound 0.949 µM) was 0.72%, the viability, T/C (second compound 0.0003 µM, first compound 3 µM) was 0.12% and the viability, T/C (second compound 0.000949 µM, first compound 0.00949 µM) was 2.93%. For the same compound, the viability, T/C (second compound 0.000949 µM, first compound 0.03 µM) was 2.47%, the viability, T/C (second compound 0.000949 µM, first compound 0.0949 µM) was 2.03% and the viability, T/C (second compound 0.000949 µM, first compound 0.3 µM) was 1.1%. It also gave a viability, T/C (second compound 0.000949 µM, first compound 0.949 µM) of 0.09%, a viability, T/C (second compound 0.000949 µM, first compound 3 µM) of 0.15% and a viability, T/C (second compound 0.003 µM, first compound 0.00949 µM) of 0.22%. The viability, T/C (second compound 0.003 µM, first compound 0.03 µM) was 0.27%, the viability, T/C (second compound 0.003 µM, first compound 0.0949 µM) was 0.21% and the viability, T/C (second compound 0.003 µM, first compound 0.3 µM) was 0.2%. It also gave a viability, T/C (second compound 0.003 µM, first compound 0.949 µM) of 0.18% and a viability, T/C (second compound 0.003 µM, first compound 3 µM) of 0.25%.
[2H]c1nc(C)nc([2H])c1-c1cc(NC[C@@H](C)c2cccc3c(C(=O)NC)ccnc23)ncn1 was tested, and the viability, T/C (compound 0.0316 µM) was 95.9% and 98.9% and 105%, the viability, T/C (compound 0.1 µM) was 98.9% and 99.4% and 98.4% and the viability, T/C (compound 0.316 µM) was 95.8% and 98.1% and 101%. For the same compound, the viability, T/C (compound 1 µM) was 99.1% and 97.4% and 99.5%, the viability, T/C (compound 3.16 µM) was 99% and 92.2% and 97% and the viability, T/C (compound 10 µM) was 93.9% and 84.6% and 93%. For the same compound, the IC50 (curve of compound) was > 10 µM.
With CC1COCCN1c1cc(-c2ccnn2C)c2ccnc(-c3ccn[nH]3)c2n1 (configuration not stated) + COc1cc2c(cc1O)CCNC21CSC2c3c(OC(C)=O)c(C)c4c(c3C(COC1=O)N1C(O)C3Cc5cc(C)c(OC)c(O)c5C(C21)N3C)OCO4 the IC50 [1] was < 0.0316 µM, the IC50 [2] was < 0.0316 µM and the IC50 [3] was < 0.0316 µM. The IC50 [4] was < 0.0316 µM, the IC50 [5] was < 0.0316 µM and the viability, T/C (second compound 30 pM, first compound 0.0316 µM) was 14.4%. For the same compound, the viability, T/C (second compound 30 pM, first compound 0.1 µM) was 6.1%, the viability, T/C (second compound 30 pM, first compound 0.316 µM) was 4.22% and the viability, T/C (second compound 30 pM, first compound 1 µM) was 3.28%. The viability, T/C (second compound 30 pM, first compound 3.16 µM) was 3.45%, the viability, T/C (second compound 30 pM, first compound 10 µM) was 5.25% and the viability, T/C (second compound 94.9 pM, first compound 0.0316 µM) was 8.99%. The viability, T/C (second compound 94.9 pM, first compound 0.1 µM) was 6.52%, the viability, T/C (second compound 94.9 pM, first compound 0.316 µM) was 3.33% and the viability, T/C (second compound 94.9 pM, first compound 1 µM) was 2.89%. For the same compound, the viability, T/C (second compound 94.9 pM, first compound 3.16 µM) was 3.13%, the viability, T/C (second compound 94.9 pM, first compound 10 µM) was 4.37% and the viability, T/C (second compound 0.0003 µM, first compound 0.0316 µM) was 5.86%. It also gave a viability, T/C (second compound 0.0003 µM, first compound 0.1 µM) of 5.4%, a viability, T/C (second compound 0.0003 µM, first compound 0.316 µM) of 3.44% and a viability, T/C (second compound 0.0003 µM, first compound 1 µM) of 2.22%. For the same compound, the viability, T/C (second compound 0.0003 µM, first compound 3.16 µM) was 1.93%, the viability, T/C (second compound 0.0003 µM, first compound 10 µM) was 2.79% and the viability, T/C (second compound 0.000949 µM, first compound 0.0316 µM) was 2.32%. The viability, T/C (second compound 0.000949 µM, first compound 0.1 µM) was 1.87%, the viability, T/C (second compound 0.000949 µM, first compound 0.316 µM) was 1.51% and the viability, T/C (second compound 0.000949 µM, first compound 1 µM) was 0.74%. For the same compound, the viability, T/C (second compound 0.000949 µM, first compound 3.16 µM) was 0.11%, the viability, T/C (second compound 0.000949 µM, first compound 10 µM) was 0.34% and the viability, T/C (second compound 0.003 µM, first compound 0.0316 µM) was 0.49%. The viability, T/C (second compound 0.003 µM, first compound 0.1 µM) was 0.59%, the viability, T/C (second compound 0.003 µM, first compound 0.316 µM) was 0.48% and the viability, T/C (second compound 0.003 µM, first compound 1 µM) was 0.35%. For the same compound, the viability, T/C (second compound 0.003 µM, first compound 3.16 µM) was 0.32% and the viability, T/C (second compound 0.003 µM, first compound 10 µM) was 0.51%.
